Like-named read-outs stand apart in the source and are kept apart here.
Tests used:
[1] = Acute toxicity (50% lethal dose, determined graphically); type: in vivo, mice (CDl); details: mouse, in vivo, CDl mice
Method: (§1) Acute toxicity: the experiments were carried out on CDl mice of average weight 20 g. The 50% lethal dose (LD 50) was determined graphically.

rats [2] = assay: Anorexia-inducing action, food consumption of female SJ (Janvier) rats; type: in vivo; details: for ED50: Rattus norvegicus, female SJ (Janvier) rats, oral, 1 hour before distribution of food
Method: (§2) The experiment was carried out by administering each compound orally at several doses to batches of 8 animals per dose, 1 hour before the distribution of the food, and graphically determining the 50% active doses (AD 50 = dose capable of reducing the food consumption by 50%).

rats [3] = assay: Anorexia-inducing action, food consumption of male Charles River rats, 1 hour and 6 hours after administration; type: in vivo; details: Rattus norvegicus, oral
Method: as §2
The AD 50 (i.e. the dose which reduces food consumption by 50% compared with untreated controls) was also determined, in the same way as that described above, on male `Charles River` rats, 1 hour and 6 hours after administration of the compounds under test.

CDl mice = assay: Acute toxicity (50% lethal dose, determined graphically); type: in vivo
Method: as §1

CD1 mice = assay: Conventional actimetry test (motility); type: in vivo
[4] = intravenous, read-out: Acute toxicity LD 50, intravenous administration
[5] = oral, read-out: Acute toxicity LD 50, oral administration
[6] = 1st series, read-out: Anorexia-inducing action AD 50, administered orally, 1st series
[7] = after 1 hour, read-out: Anorexia-inducing Action AD 50 orally after 1 hour
[8] = after 6 hours, read-out: Anorexia-inducing Action AD 50 orally after 6 hours
[9] = 2nd series, read-out: Anorexia-inducing action AD 50, administered orally, 2nd series

SMILES	LD50 [1, 4]	LD50 [1, 5]	ED50 (rats [2]; [6])	ED50 (rats [3]; [7])	ED50 (rats [3]; [8])	ED50 (rats [2]; [9])	toxicity (CDl mice; overall conclusion)	therapeutic index (CDl mice; overall conclusion from LD 50 and AD 50)	anorexia-inducing activity compared with the reference compounds (rats [2]; overall conclusion from Tables I and II)	motor activity at higher doses (CD1 mice; CD1 mice, 20 mg/kg)	motility at a low dose (CD1 mice; CD1 mice, up to 5 mg/kg)	stimulant effect (CD1 mice; overall conclusion)
CCNC(C)Cc1cccc(C(F)(F)F)c1 (stereo not shown) [Fenfluramine, reference compound]	42 mg/kg	195 mg/kg	5 mg/kg	1.4 mg/kg	4 mg/kg	–	–	–	–	–	–	–
Fc1ccc(N2CCNCC2)cc1C(F)(F)F [SLC-001, 1-(4-fluoro-3-trifluoromethyl-phenyl)-piperazine, reference compound]	59 mg/kg	150 mg/kg	–	2 mg/kg	> 6 mg/kg	2.2 mg/kg	–	–	–	–	–	–
Fc1ccc(N2CCNCC2)cc1SC(F)(F)F [SLC-298, 1-(4-fluoro-3-trifluoromethylthiophenyl)-piperazine]	60 mg/kg	150 mg/kg	1.5 mg/kg	1.9 mg/kg	2.7 mg/kg	1.8 mg/kg	moderate	high	more active as an anorexia-inducing agent than the reference compounds	reduces the motor activity	only very slightly increases the motility	little or no stimulant effect

From patent US4044132A, “Substituted piperazine derivative, its preparation and anorexia compositions containing it” (Synthelabo, priority 1975, dated 1977)
